The text below walks through data of US7700765B2, “DNA minor groove binding compounds” (University of Strathclyde, priority 2001, dated 2010).

Test [1] relates to double-stranded DNA decamer CGACTAGTCG (SEQ ID NO:3). Put plainly: Capillary electrophoresis ligand-DNA binding study. The conditions noted are these: drug to DNA ratio up to 4:1. An excerpt: (§1) Typically, ligand binding results in a change in migration time of the DNA and sometimes a change in peak shape.
(§2) The following are shown in FIGS. 1-6: • (a) the experimental conditions, including the DNA sequence(s); • (b) the result of sequential addition of ligand; and • (c) the structure of the ligand being investigated. Key to FIGS. 1 to 6: • r0=electropherogram in the absence of drug • rX=(where X is 0.5, 1, 2, 3 or 4) electropherogram in the presence of drug, where the drug:DNA ratio (in terms of concentration) is X:1
(§3) This ratio corresponds to the binding ratio.

In test [2] the test system is mixture of double-stranded DNA oligonucleotides AAATTATATTAT (SEQ ID NO:1) and GGACTAGTCG (SEQ ID NO:4). Put plainly: Capillary electrophoresis competitive binding study. The conditions noted are these: AAATTATATTAT dodecamer versus GGACTAGTCG decamer.
Excerpt: (§4) Capillary electrophoresis was used to study of ligand-DNA binding (see: (i) Hamdan, I. I.; Skellern, G. G.; and Waigh, R. D. “Separation of pd(GC)12 from pd(AT)12 by free solution capillary electrophoresis”, J. Cromatogr. A. 806, 165-168 (1998); (ii) Hamdan, I. I.; Skellern, G. G.; and Waigh, R. D. “Use of capillary electrophoresis in the study of ligand-DNA interactions”, Nucleic Acids Research 26, 3053-3058 (1998); (iii) Hamdan, I. I.; Skellern, G. G.; and Waigh, R. D. “Ligand binding to oligonucleotides” Methods in Molecular Biology, Vol. 163, “Capillary Electrophoresis of Nucleic acids”, Vol 2, pages 379-391, K. R. Mitchelson and J. Cheng Eds., Humana Press, New Jersey, (2000)).
as §1, §2
This ratio corresponds to the binding ratio. […]

For test [3], the system named is MS1 sequence (radio-labelled DNA, SEQ ID NO:6). Put plainly: DNA footprinting (DNase I). The class given is binding. Conditions: concentration of 0.03 μM. The procedure:
DNA footprinting is a well-established technique in which a section of radio-labelled DNA (SEQ ID NO:6) is incubated with a chemical or biological cleaving agent, in the presence and absence of a putative binding ligand. Regions of ligand binding will show as blanks in the ‘ladder’. Knowing the DNA sequence, the binding sites can then be deduced, from the location of these blanks. The sequence shown in FIGS. 7 and 8 is MS1, which contains all possible four-base-pair binding sites. The procedure used in the footprinting experiments was analogous to that described in J. Med. Chem. 43, 3257 (2000), the disclosures of which document are hereby incorporated by reference. In an analogous manner to the procedure described in J. Med. Chem. 43, 3257 (2000), the MS1 sequence was labelled at the 3′-end with [α-^32P]dATP using reverse transcriptase. The agent used to cleave the radio-labelled DNA was DNase I. Bases that fall within the “footprint” of a compound are indicated by XX . . . XX underneath the sequence. The binding domain that has been confirmed by capillary electrophoresis is indicated by XX. XX.

Test [4] relates to double-stranded DNA oligonucleotide CCACTAGTGG (SEQ ID NO:5). Put plainly: Capillary electrophoresis ligand-DNA binding study. The conditions noted are these: with CCACTAGTGG (SEQ ID NO:5).
Excerpt: as §4, §1, §2, §3

Test [5] deals with NFκB protein-DNA complexes. Put plainly: NFκB DNA-binding assay (gel shift) with macrophage nuclear extracts. The class given is biochemical, Murine. Conditions: 1 μL of a 1 mM solution, final volume 10 μL; nuclear protein from macrophages exposed to LPS. The procedure:
Murine macrophages (obtained and cultured as described in Cell. Signal. 11(7), 491 (1999), hereinafter referred to as “Reference 1”, the disclosures of which document are hereby incorporated by reference) were exposed to vehicle (see Reference 1) or 1 μg/mL lipopolysaccharide (LPS; the active component of gram-negative endotoxin and a strong activator of the Nuclear Factor kappa B (NFκB) pathway; the particular LPS being obtained from Salmonella minnesota) for 1 hour and nuclear extracts prepared by standard procedures (see Brit. J. Pharmacol. 134, 393 (2001), hereinafter referred to as “Reference 2”, the disclosures of which document are hereby incorporated by reference).
Aliquots of compounds (1 μL of a 1 mM solution) were incubated with 1 μL (0.035 pmol) of a ^32P-labelled 20 bp double-stranded DNA oligonucleotide (representing the consensus binding sequence for NFκB proteins (see Reference 2 and Brit. J. Pharmacol. 134, 1629-1638 (2001), the disclosures of which latter document are hereby incorporated by reference)) for 30 min at room temperature. […] The formation of NFκB protein-DNA complexes and potential inhibition of complex formation in the presence of the above compounds was detected by autoradiography. […]
A general note: Mobility shift assays separate free from complexed probe on a gel.

“N-[3-(Dimethylamino)propyl]-2-({[4-({[4-(formylamino)-1-methyl-1H-pyrrol-2-yl]carbonyl}amino)-1-methyl-1H-pyrrol-2-yl]carbonyl}amino)-5-isopropyl-1,3-thiazole-4-carboxamide [Example 3]”: in test [1], the “affinity for the sequence” value is on record as “strong affinity”. Also, in test [2], the “relative affinity in competitive binding” value was “greater affinity for the decamer ACTA sequence”. Besides, the “footprint on MS1 sequence” value in test [3] was “binding to only one site on the MS1 sequence”. In addition, in test [4], the binding result was “identical with that achieved with the sequence in FIG. 3”. Moreover, the “effect on LPS-stimulated NFκB-DNA binding activity” value in test [5] is reported as “appeared to inhibit”.
